Results: ChEMBL document CHEMBL1153043, “Synthesis and evaluation of 1-(benzo[b]thiophen-2-yl)ethanone analogues as novel anti-osteoporosis agents acting on BMP-2 promotor” (Bioorg Med Chem Lett, 2009)

Tests used:
Rattus norvegicus [1] = test: Antiosteoporotic activity in ovariectomized Sprague-Dawley rat assessed as trabecular bone volume at 7.5 mg/kg/day, po for 90 days by bone histomorphometry; type: functional, Trabecula
Rattus norvegicus [2] = test: Antiosteoporotic activity in ovariectomized Sprague-Dawley rat assessed as trabecular bone volume at 15 mg/kg/day, po for 90 days by bone histomorphometry; type: functional, Trabecula
Rattus norvegicus [3] = test: Antiosteoporotic activity in ovariectomized Sprague-Dawley rat assessed as trabecular bone volume at 30 mg/kg/day, po for 90 days by bone histomorphometry; type: functional, Trabecula
Rattus norvegicus [4] = test: Antiosteoporotic activity in ovariectomized Sprague-Dawley rat assessed as trabecula resorption surface at 7.5 mg/kg/day, po for 90 days by bone histomorphometry; type: functional
Rattus norvegicus [5] = test: Antiosteoporotic activity in ovariectomized Sprague-Dawley rat assessed as trabecula resorption surface at 15 mg/kg/day, po for 90 days by bone histomorphometry; type: functional
Rattus norvegicus [6] = test: Antiosteoporotic activity in ovariectomized Sprague-Dawley rat assessed as trabecula resorption surface at 30 mg/kg/day, po for 90 days by bone histomorphometry; type: functional
Rattus norvegicus [7] = test: Antiosteoporotic activity in ovariectomized Sprague-Dawley rat assessed as trabecula formation surface at 7.5 mg/kg/day, po for 90 days by bone histomorphometry; type: functional
Rattus norvegicus [8] = test: Antiosteoporotic activity in ovariectomized Sprague-Dawley rat assessed as trabecula formation surface at 15 mg/kg/day, po for 90 days by bone histomorphometry; type: functional
Rattus norvegicus [9] = test: Antiosteoporotic activity in ovariectomized Sprague-Dawley rat assessed as trabecula formation surface at 30 mg/kg/day, po for 90 days by bone histomorphometry; type: functional
Rattus norvegicus [10] = test: Antiosteoporotic activity in ovariectomized Sprague-Dawley rat assessed as mineral apposition rate at 7.5 mg/kg/day, po for 90 days by bone histomorphometry; type: functional
Rattus norvegicus [11] = test: Antiosteoporotic activity in ovariectomized Sprague-Dawley rat assessed as mineral apposition rate at 15 mg/kg/day, po for 90 days by bone histomorphometry; type: functional
Rattus norvegicus [12] = test: Antiosteoporotic activity in ovariectomized Sprague-Dawley rat assessed as mineral apposition rate at 30 mg/kg/day, po for 90 days by bone histomorphometry; type: functional
Rattus norvegicus [13] = test: Antiosteoporotic activity in ovariectomized Sprague-Dawley rat assessed as osteo cortex mineralization rate at 7.5 mg/kg/day, po for 90 days by bone histomorphometry; type: functional
Rattus norvegicus [14] = test: Antiosteoporotic activity in ovariectomized Sprague-Dawley rat assessed as osteo cortex mineralization rate at 15 mg/kg/day, po for 90 days by bone histomorphometry; type: functional
Rattus norvegicus [15] = test: Antiosteoporotic activity in ovariectomized Sprague-Dawley rat assessed as osteo cortex mineralization rate at 30 mg/kg/day, po for 90 days by bone histomorphometry; type: functional
Rattus norvegicus [16] = test: Antiosteoporotic activity in ovariectomized Sprague-Dawley rat assessed as average osteoid width at 7.5 mg/kg/day, po for 90 days by bone histomorphometry; type: functional
Rattus norvegicus [17] = test: Antiosteoporotic activity in ovariectomized Sprague-Dawley rat assessed as average osteoid width at 15 mg/kg/day, po for 90 days by bone histomorphometry; type: functional
Rattus norvegicus [18] = test: Antiosteoporotic activity in ovariectomized Sprague-Dawley rat assessed as average osteoid width at 30 mg/kg/day, po for 90 days by bone histomorphometry; type: functional
[19] = Toxicity in po dosed Kunming mouse; type: organism-based; conditions: in vivo
[20] = Toxicity in ip dosed Kunming mouse; type: organism-based; conditions: in vivo
Rattus norvegicus [21] = test: Toxicity in sham operated Sprague-Dawley rat assessed as effect on general behavior at 150 mg/kg/day, po for 90 days; type: organism-based; parameters: route oral; conditions: in vivo, 2160 h
Rattus norvegicus [22] = test: Toxicity in sham operated Sprague-Dawley rat assessed as effect on glutamine-oxaloacetic transaminase level at 150 mg/kg/day, po for 90 days; type: organism-based; parameters: route oral; conditions: in vivo, 2160 h
Rattus norvegicus [23] = test: Toxicity in sham operated Sprague-Dawley rat assessed as effect on glutamic-pyruvic transaminase level at 150 mg/kg/day, po for 90 days; type: organism-based; parameters: route oral; conditions: in vivo, 2160 h
Rattus norvegicus [24] = test: Toxicity in sham operated Sprague-Dawley rat assessed as effect on total bilirubin level at 150 mg/kg/day, po for 90 days; type: organism-based; parameters: route oral; conditions: in vivo, 2160 h
Rattus norvegicus [25] = test: Toxicity in sham operated Sprague-Dawley rat assessed as effect on alkaline phosphatase level at 150 mg/kg/day, po for 90 days; type: organism-based; parameters: route oral; conditions: in vivo, 2160 h
Rattus norvegicus [26] = test: Toxicity in sham operated Sprague-Dawley rat assessed as effect on total protein level at 150 mg/kg/day, po for 90 days; type: organism-based; parameters: route oral; conditions: in vivo, 2160 h
Rattus norvegicus [27] = test: Toxicity in sham operated Sprague-Dawley rat assessed as effect on albumin level at 150 mg/kg/day, po for 90 days; type: organism-based; parameters: route oral; conditions: in vivo, 2160 h
Rattus norvegicus [28] = test: Toxicity in sham operated Sprague-Dawley rat assessed as effect on triglycerides level at 150 mg/kg/day, po for 90 days; type: organism-based; parameters: route oral; conditions: in vivo, 2160 h
Rattus norvegicus [29] = test: Toxicity in sham operated Sprague-Dawley rat assessed as effect on total cholesterol level at 150 mg/kg/day, po for 90 days; type: organism-based; parameters: route oral; conditions: in vivo, 2160 h
Rattus norvegicus [30] = test: Toxicity in sham operated Sprague-Dawley rat assessed as effect on direct-high density lipoprotein level at 150 mg/kg/day, po for 90 days; type: organism-based; parameters: route oral; conditions: in vivo, 2160 h
Rattus norvegicus [31] = test: Toxicity in sham operated Sprague-Dawley rat assessed as effect on direct-low density lipoprotein level at 150 mg/kg/day, po for 90 days; type: organism-based; parameters: route oral; conditions: in vivo, 2160 h
Rattus norvegicus [32] = test: Toxicity in sham operated Sprague-Dawley rat assessed as effect on glucose level at 150 mg/kg/day, po for 90 days; type: organism-based; parameters: route oral; conditions: in vivo, 2160 h
Rattus norvegicus [33] = test: Toxicity in sham operated Sprague-Dawley rat assessed as effect on blood urea nitrogen level at 150 mg/kg/day, po for 90 days; type: organism-based; parameters: route oral; conditions: in vivo, 2160 h
Rattus norvegicus [34] = test: Toxicity in sham operated Sprague-Dawley rat assessed as effect on creatinine level at 150 mg/kg/day, po for 90 days; type: organism-based; parameters: route oral; conditions: in vivo, 2160 h
Rattus norvegicus [35] = test: Toxicity in sham operated Sprague-Dawley rat assessed as effect on calcium level at 150 mg/kg/day, po for 90 days; type: organism-based; parameters: route oral; conditions: in vivo, 2160 h
Rattus norvegicus [36] = test: Toxicity in sham operated Sprague-Dawley rat assessed as effect on bone histomorphometric parameters at 150 mg/kg/day, po for 90 days; type: organism-based; parameters: route oral; conditions: in vivo, 2160 h
Rattus norvegicus [37] = test: Antiosteoporotic activity in po dosed ovariectomized Sprague-Dawley rat assessed as trabecular bone volume administered for 90 days by bone histomorphometry; type: functional, organism-based; conditions: Trabecula
Rattus norvegicus [38] = test: Antiosteoporotic activity in po dosed ovariectomized Sprague-Dawley rat assessed as trabecula formation surface administered for 90 days by bone histomorphometry; type: functional, organism-based
Rattus norvegicus [39] = test: Antiosteoporotic activity in po dosed ovariectomized Sprague-Dawley rat assessed as trabecula resorption surface administered for 90 days by bone histomorphometry; type: functional, organism-based
Rattus norvegicus [40] = test: Antiosteoporotic activity in po dosed ovariectomized Sprague-Dawley rat assessed as mineral apposition rate administered for 90 days by bone histomorphometry; type: functional, organism-based
Rattus norvegicus [41] = test: Antiosteoporotic activity in po dosed ovariectomized Sprague-Dawley rat assessed as osteo cortex mineralization rate administered for 90 days by bone histomorphometry; type: functional, organism-based
Rattus norvegicus [42] = test: Antiosteoporotic activity in po dosed ovariectomized Sprague-Dawley rat assessed as average osteoid width administered for 90 days by bone histomorphometry; type: functional, organism-based
[43] = Enhancement of BMP-2 expression in mouse MC3T3-E1 cells assessed as upregulation rate at 4 uM; type: functional, cell-based

CC(=O)c1cc2ccccc2s1
Activity (Rattus norvegicus [1]): 14.41%
Activity (Rattus norvegicus [2]): 19.39%
Activity (Rattus norvegicus [3]): 21.02%
Activity (Rattus norvegicus [4]): 7.81%
Activity (Rattus norvegicus [5]): 5.16%
Activity (Rattus norvegicus [6]): 4.74%
Activity (Rattus norvegicus [7]): 7.4%
Activity (Rattus norvegicus [8]): 6.64%
Activity (Rattus norvegicus [9]): 6.39%
Activity (Rattus norvegicus [10]): 2.32 µm/day
Activity (Rattus norvegicus [11]): 2.19 µm/day
Activity (Rattus norvegicus [12]): 2.18 µm/day
Activity (Rattus norvegicus [13]): 3.42 µm/day
Activity (Rattus norvegicus [14]): 3.14 µm/day
Activity (Rattus norvegicus [15]): 3.22 µm/day
Activity (Rattus norvegicus [16]): 11.4 µm
Activity (Rattus norvegicus [17]): 10.9 µm
Activity (Rattus norvegicus [18]): 10.8 µm
LD50 [19]: 5000 mg/kg
LD50 [20]: 1580 mg/kg
Activity (Rattus norvegicus [21]): Non-toxic
Activity (Rattus norvegicus [22]): Non-toxic
Activity (Rattus norvegicus [23]): Non-toxic
Activity (Rattus norvegicus [24]): Non-toxic
Activity (Rattus norvegicus [25]): Non-toxic
Activity (Rattus norvegicus [26]): Non-toxic
Activity (Rattus norvegicus [27]): Non-toxic
Activity (Rattus norvegicus [28]): Non-toxic
Activity (Rattus norvegicus [29]): Non-toxic
Activity (Rattus norvegicus [30]): Non-toxic
Activity (Rattus norvegicus [31]): Non-toxic
Activity (Rattus norvegicus [32]): Non-toxic
Activity (Rattus norvegicus [33]): Non-toxic
Activity (Rattus norvegicus [34]): Non-toxic
Activity (Rattus norvegicus [35]): Non-toxic
Activity (Rattus norvegicus [36]): Non-toxic
Activity (Rattus norvegicus [37]): Dose-dependent effect
Activity (Rattus norvegicus [38]): Dose-dependent effect
Activity (Rattus norvegicus [39]): Dose-dependent effect
Activity (Rattus norvegicus [40]): Dose-dependent effect
Activity (Rattus norvegicus [41]): Dose-dependent effect
Activity (Rattus norvegicus [42]): Dose-dependent effect
Activity [43]: 35.6%
